From the NIST ThermoML archive (doi:10.1016/j.fluid.2018.08.017)

Experiment: wn = mass fraction of the nth substance listed
Conditions: 101 kPa, Liquid; for mass density: Vibrating tube method; for speed of sound: Single path-length method

CN1CCCC1=O [N-methylpyrrolidone] + CCCCn1cc[n+](C)c1.F[B-](F)(F)F
Conditions | mass density [kg/m3] | speed of sound [m/s] | viscosity [mPa·s]
318.15 K, w2 = 0 | – | – | 1.258
318.15 K, w2 = 0.0986 | – | – | 1.662
318.15 K, w2 = 0.2498 | 1057 | – | 2.405
318.15 K, w2 = 0.4971 | 1099.5 | – | 4.948
318.15 K, w2 = 0.7413 | 1141.7 | – | 12.04
323.15 K, w2 = 0 | 1007.4 | 1450.4 | 1.176
323.15 K, w2 = 0.0986 | 1026.6 | 1468.4 | 1.542
323.15 K, w2 = 0.2498 | 1052.8 | 1478 | 2.214
323.15 K, w2 = 0.4971 | 1095.5 | 1493.2 | 4.444
323.15 K, w2 = 0.7413 | 1137.9 | 1498.9 | 10.54
328.15 K, w2 = 0 | 1002.9 | 1431.4 | 1.103
328.15 K, w2 = 0.0986 | 1022.3 | 1450.5 | 1.435
328.15 K, w2 = 0.2498 | 1048.6 | 1461.1 | 2.043
328.15 K, w2 = 0.4971 | 1091.6 | 1478.1 | 4.015
328.15 K, w2 = 0.7413 | 1134.2 | 1485.6 | 9.281
333.15 K, w2 = 0 | 998.4 | 1412.8 | 1.037
333.15 K, w2 = 0.0986 | 1018 | 1432.6 | 1.341
333.15 K, w2 = 0.2498 | 1044.4 | 1444.4 | 1.892
333.15 K, w2 = 0.4971 | 1087.6 | 1463.2 | 3.636
333.15 K, w2 = 0.7413 | 1130.5 | 1472.4 | 8.224
338.15 K, w2 = 0 | 993.9 | 1394.4 | 0.9769
338.15 K, w2 = 0.0986 | 1013.6 | 1414.6 | 1.258
338.15 K, w2 = 0.2498 | 1040.2 | 1427.8 | 1.76
338.15 K, w2 = 0.4971 | 1083.6 | 1448.1 | 3.34
338.15 K, w2 = 0.7413 | 1126.7 | 1459.3 | 7.318
343.15 K, w2 = 0 | 989.4 | 1376 | 0.923
343.15 K, w2 = 0.0986 | 1009.2 | 1396.4 | 1.182
343.15 K, w2 = 0.2498 | 1036 | 1411.3 | 1.641
343.15 K, w2 = 0.4971 | 1079.6 | 1432.9 | 3.064
343.15 K, w2 = 0.7413 | 1123 | 1445.8 | 6.555
